According to US7615651B2, “Diaryl, dipyridinyl and aryl-pyridinyl derivatives and uses thereof” (Pfizer Inc., priority 2006, dated 2009):
pKi: −log10 of the molar value. Where a name gives a salt, the structure may show the parent alone. Read-outs that look alike come from different tables or passages of the source.

Key:
Format in all cases: biochemical
opioid receptor delta = target: T1, opioid receptor delta (Homo sapiens, UniProt P41143); experiment: GTPγ[35S] binding assay, antagonism of BW-373U86
T1 construct: expressed in transfected cells
Method: (§1) Membranes were prepared from cells as described (Bass et al, 1996). GTPγ[5S] binding assays were performed in a 96 well FlashPlate™ format in duplicate using […] GTPγ[^35S] and 5 μg membrane per well in assay buffer composed of 50 mM Tris HCl, pH 7.4, 5 mM MgCl2, 1 mM EDTA, 100 mM NaCl, 30 μM GDP, 0.1% bovine serum albumin and the following protease inhibitors: 100 μg/ml bacitracin, 100 μg/ml benzamidine, 5 μg/ml aprotinin, 5 μg/ml leupeptin. The assay mix was then incubated at 30° C. with increasing concentrations of antagonist (10^−10 M to 10^−5 M) for 10 minutes and challenged with the agonists BW-373U86 (1 nM), dynorphin-A (10 nM), […] (1 μM) for opioid receptors delta, kappa, and mu, respectively. The assays were performed at 30° C. for one hour. The FlashPlates were then centrifuged at 2000×g for 10 minutes. Stimulation of GTPγ[^35S] binding was then quantified using a Wallac Microbeta and Ki calculations were done using Prism™ by Graphpad.

opioid receptor kappa = target: T2, opioid receptor kappa (Homo sapiens, UniProt P41145); experiment: GTPγ[35S] binding assay, antagonism of dynorphin-A
T2 construct: expressed in transfected cells
Method: as §1

opioid receptor mu = target: T3, opioid receptor mu (Homo sapiens, UniProt P35372); experiment: GTPγ[35S] binding assay, antagonism of endorphin
T3 construct: expressed in transfected cells
Method: as §1

[1] = average Ki, antagonism of BW-373U86 (1 nM) at delta opioid receptor membranes, read-out: Delta functional Ki (GTPγ[35S] binding)
[2] = average Ki, antagonism of dynorphin-A (10 nM) at kappa opioid receptor membranes, read-out: Kappa functional Ki (GTPγ[35S] binding)
[3] = average Ki, antagonism of endorphin (1 μM) at mu opioid receptor membranes, read-out: Mu functional Ki (GTPγ[35S] binding)
[4] = read-out: Delta functional Ki (GTPγ[35S] binding)
[5] = read-out: Kappa functional Ki (GTPγ[35S] binding)
[6] = read-out: Mu functional Ki (GTPγ[35S] binding)
[7] = average Ki, antagonism of BW-373U86 (1 nM) at delta opioid receptor, read-out: Delta functional Ki (GTPγ[35S] binding)
[8] = average Ki, antagonism of dynorphin-A (10 nM) at kappa opioid receptor, read-out: Kappa functional Ki (GTPγ[35S] binding)
[9] = average Ki, antagonism of endorphin (1 μM) at mu opioid receptor, read-out: Mu functional Ki (GTPγ[35S] binding)

T2 sequence (P41145 whole entry): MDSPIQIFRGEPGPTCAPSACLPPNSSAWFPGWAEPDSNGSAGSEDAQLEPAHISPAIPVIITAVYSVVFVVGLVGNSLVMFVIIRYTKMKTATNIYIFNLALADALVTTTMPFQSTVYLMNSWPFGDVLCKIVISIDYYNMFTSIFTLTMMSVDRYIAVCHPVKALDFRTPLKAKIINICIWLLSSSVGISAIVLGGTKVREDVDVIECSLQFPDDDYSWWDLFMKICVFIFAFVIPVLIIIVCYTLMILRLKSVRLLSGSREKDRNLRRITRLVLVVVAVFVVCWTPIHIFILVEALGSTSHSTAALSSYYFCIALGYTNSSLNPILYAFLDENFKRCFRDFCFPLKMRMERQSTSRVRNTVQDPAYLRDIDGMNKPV
T3 sequence (P35372 whole entry): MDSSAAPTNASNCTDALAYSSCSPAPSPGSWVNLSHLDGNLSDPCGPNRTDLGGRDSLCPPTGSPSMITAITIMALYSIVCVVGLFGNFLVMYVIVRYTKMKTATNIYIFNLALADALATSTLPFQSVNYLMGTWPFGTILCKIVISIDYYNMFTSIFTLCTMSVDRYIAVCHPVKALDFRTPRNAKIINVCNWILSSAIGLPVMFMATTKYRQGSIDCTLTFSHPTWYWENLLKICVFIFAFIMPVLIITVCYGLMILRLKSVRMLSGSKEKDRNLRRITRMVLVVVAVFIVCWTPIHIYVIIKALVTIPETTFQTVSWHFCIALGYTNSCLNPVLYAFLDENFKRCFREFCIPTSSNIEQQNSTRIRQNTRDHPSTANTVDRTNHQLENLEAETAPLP
T1 sequence (P41143 whole entry): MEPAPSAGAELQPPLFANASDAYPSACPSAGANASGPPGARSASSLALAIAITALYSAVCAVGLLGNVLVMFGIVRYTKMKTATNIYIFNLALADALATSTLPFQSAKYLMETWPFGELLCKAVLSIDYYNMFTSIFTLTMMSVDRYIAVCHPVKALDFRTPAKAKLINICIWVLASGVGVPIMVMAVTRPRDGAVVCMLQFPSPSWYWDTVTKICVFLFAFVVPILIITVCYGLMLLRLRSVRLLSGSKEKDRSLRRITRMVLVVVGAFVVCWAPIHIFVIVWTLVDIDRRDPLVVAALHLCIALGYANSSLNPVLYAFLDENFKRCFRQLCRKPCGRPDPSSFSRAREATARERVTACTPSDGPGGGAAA

In the case of `Cc1cc(C(N)=O)ccc1-c1cc(F)c(CNC2Cc3ccccc3C2)cc1F` [4B-75], the pKi (opioid receptor delta; [1]) was 9.51, the pKi (opioid receptor kappa; [2]) was 8.90 and the pKi (opioid receptor mu; [3]) was 10.16.

In the case of `CCc1cc(C(N)=O)ccc1-c1c(C)cc(CNCCC2CCOCC2)cc1C` [4B-76], the pKi (opioid receptor delta; [4]) was 9.30, the pKi (opioid receptor kappa; [5]) was 8.09 and the pKi (opioid receptor mu; [6]) was 8.99.

`CCc1cc(C(N)=O)ccc1-c1ccc(CNC2Cc3ccccc3C2)cc1C` [4B-77] showed a pKi (opioid receptor delta; [4]) of 9.57, a pKi (opioid receptor kappa; [5]) of 9.02 and a pKi (opioid receptor mu; [6]) of 9.94.

`NC(=O)c1ccc(-c2ccc(CNC[C@H]3CCCO3)cc2Cl)c(Cl)c1` [4B-78] was tested, and the pKi (opioid receptor delta; [4]) was 7.73, the pKi (opioid receptor kappa; [5]) was 8.07 and the pKi (opioid receptor mu; [6]) was 7.45.

`CC1(C)OCC(CNCc2ccc(-c3ccc(C(N)=O)cc3Cl)c(Cl)c2)O1` (stereo not drawn) [4B-79] showed a pKi (opioid receptor delta; [1]) of 8.85, a pKi (opioid receptor kappa; [2]) of 6.89 and a pKi (opioid receptor mu; [3]) of 6.64.

For `CC(C)CCNCc1cc(F)c(-c2ccc(C(N)=O)cc2Cl)cc1F` [4B-80], the pKi (opioid receptor delta; [4]) was 7.93, the pKi (opioid receptor kappa; [5]) was 8.02 and the pKi (opioid receptor mu; [6]) was 7.86.

`CCc1cc(C(N)=O)ccc1-c1cc(F)c(CNCCC(C)C)c(F)c1` [4B-81] gave a pKi (opioid receptor delta; [4]) of 7.82, a pKi (opioid receptor kappa; [5]) of 7.77 and a pKi (opioid receptor mu; [6]) of 7.87.

Compound `Cc1cc(CNC2Cc3ccccc3C2)cc(Cl)c1-c1ccc(C(N)=O)cc1Cl` [4B-82] has a pKi (opioid receptor delta; [4]) of 9.82, a pKi (opioid receptor kappa; [5]) of 8.75 and a pKi (opioid receptor mu; [6]) of 10.54.

In the case of `Cc1cc(C(N)=O)ccc1-c1c(C)cc(CNCCC(C)C)cc1Cl` [4B-83], the pKi (opioid receptor delta; [4]) was 8.78, the pKi (opioid receptor kappa; [5]) was 8.43 and the pKi (opioid receptor mu; [6]) was 9.37.

`Cc1cc(C(N)=O)ccc1-c1c(C)cc(CNC2Cc3ccccc3C2)cc1Cl` [4B-84] gave a pKi (opioid receptor delta; [4]) of 10.11, a pKi (opioid receptor kappa; [5]) of 9.23 and a pKi (opioid receptor mu; [6]) of 10.84.

`Cc1cc(C(N)=O)ccc1-c1ccc(CNCCC(C)C)c(OCc2ccccc2)c1` [4B-85] was tested, and the pKi (opioid receptor delta; [4]) was 9.23, the pKi (opioid receptor kappa; [5]) was 8.26 and the pKi (opioid receptor mu; [6]) was 8.61.

With `Cc1cc(C(N)=O)ccc1-c1ccc(CNC2Cc3ccccc3C2)c(OCc2ccccc2)c1` [4B-86] the pKi (opioid receptor delta; [4]) was 10.36, the pKi (opioid receptor kappa; [5]) was 8.76 and the pKi (opioid receptor mu; [6]) was 10.05.

`Cc1cc(C(N)=O)ccc1-c1ccc(CNC2Cc3ccccc3C2)c(O)c1` [4B-88] was tested, and the pKi (opioid receptor delta; [4]) was 9.23, the pKi (opioid receptor kappa; [5]) was 9.11 and the pKi (opioid receptor mu; [6]) was 9.87.

For `COc1cc(-c2ccc(C(N)=O)cc2C)ccc1CNC1Cc2ccccc2C1` [4B-89], the pKi (opioid receptor delta; [4]) was 10.05, the pKi (opioid receptor kappa; [5]) was 9.44 and the pKi (opioid receptor mu; [6]) was 10.57.

`Cc1cc(-c2ccc(C(N)=O)cc2C)ccc1CNCCC(C)C` [4B-90] showed a pKi (opioid receptor delta; [4]) of 8.78, a pKi (opioid receptor kappa; [5]) of 8.78 and a pKi (opioid receptor mu; [6]) of 8.93.

Work on `Cc1cc(C(N)=O)ccc1-c1c(C)cc(CNCC2CCCO2)cc1Cl` (stereo not drawn) [4B-91] yielded a pKi (opioid receptor delta; [1]) of 7.61, a pKi (opioid receptor kappa; [2]) of 8.05 and a pKi (opioid receptor mu; [3]) of 8.65.

Compound `CC(C)CCNCc1ccc(-c2ncc(C(N)=O)cc2Cl)cc1` [4C-01] has a pKi (opioid receptor delta; [1]) of 7.47, a pKi (opioid receptor kappa; [2]) of 7.81 and a pKi (opioid receptor mu; [3]) of 7.55.

For `NC(=O)c1cnc(-c2ccc(CNC3Cc4ccccc4C3)cc2)c(Cl)c1` [4C-02], the pKi (opioid receptor delta; [4]) was 8.71, the pKi (opioid receptor kappa; [5]) was 8.71 and the pKi (opioid receptor mu; [6]) was 9.31.

For `Cc1cc(C(N)=O)cnc1-c1ccc(CNC2Cc3ccccc3C2)cc1` [4C-03], the pKi (opioid receptor delta; [4]) was 9.09, the pKi (opioid receptor kappa; [5]) was 9.01 and the pKi (opioid receptor mu; [6]) was 9.70.

In the case of `Cc1cc(C(N)=O)cnc1-c1ccc(CNCCC(C)C)cc1` [4C-04], the pKi (opioid receptor delta; [1]) was 7.66, the pKi (opioid receptor kappa; [2]) was 8.14 and the pKi (opioid receptor mu; [3]) was 7.98.

Compound `CCOCCNCc1ccc(-c2cccc(C(N)=O)c2)c(Cl)c1` [6A-01] has a pKi (opioid receptor delta; [1]) of 7.59, a pKi (opioid receptor kappa; [2]) of 7.38 and a pKi (opioid receptor mu; [3]) of 7.89.

`NC(=O)c1cccc(-c2ccc(CNCCc3cscn3)cc2Cl)c1` [6A-02] showed a pKi (opioid receptor delta; [4]) of 7.63, a pKi (opioid receptor kappa; [5]) of 6.33 and a pKi (opioid receptor mu; [6]) of 7.91.

`NC(=O)c1cccc(-c2ccc(CN[C@H]3c4ccccc4C[C@H]3O)cc2Cl)c1` [6A-03] was tested, and the pKi (opioid receptor delta; [4]) was 7.44, the pKi (opioid receptor kappa; [5]) was 8.03 and the pKi (opioid receptor mu; [6]) was 8.53.

`Cn1c(=O)n(C)c2cc(CNCc3ccc(-c4cccc(C(N)=O)c4)c(Cl)c3)ccc21` [6A-04] was tested, and the pKi (opioid receptor delta; [1]) was 7.49, the pKi (opioid receptor kappa; [2]) was 6.09 and the pKi (opioid receptor mu; [3]) was 7.82.

Compound `Cc1cc(C)n(CC(C)NCc2ccc(-c3cccc(C(N)=O)c3)c(Cl)c2)n1` (stereo not drawn) [6A-05] has a pKi (opioid receptor delta; [4]) of 7.75, a pKi (opioid receptor kappa; [5]) of 7.57 and a pKi (opioid receptor mu; [6]) of 8.28.

`COCCNCc1ccc(-c2cccc(C(N)=O)c2)c(Cl)c1` [6A-07] was tested, and the pKi (opioid receptor delta; [1]) was 10.19, the pKi (opioid receptor kappa; [2]) was 7.24 and the pKi (opioid receptor mu; [3]) was 7.11.

In the case of `Cc1ncsc1CCNCc1ccc(-c2cccc(C(N)=O)c2)c(Cl)c1` [6A-08], the pKi (opioid receptor delta; [4]) was 8.31, the pKi (opioid receptor kappa; [5]) was 7.49 and the pKi (opioid receptor mu; [6]) was 8.06.

Work on `CC(C)CCNCc1ccc(-c2cccc(-c3ncn[nH]3)c2)cc1` [7A-01] yielded a pKi (opioid receptor delta; [4]) of 7.58, a pKi (opioid receptor kappa; [5]) of 8.07 and a pKi (opioid receptor mu; [6]) of 8.08.

`CC(C)CCNCc1ccc(-c2cc(-c3ncn[nH]3)ccc2F)cc1` [7A-02] was tested, and the pKi (opioid receptor delta; [1]) was 8.28, the pKi (opioid receptor kappa; [2]) was 8.75 and the pKi (opioid receptor mu; [3]) was 8.80.

For `CC(C)CCNCc1ccc(-c2cc(-c3ncn[nH]3)ccc2F)c(F)c1` [7A-03], the pKi (opioid receptor delta; [4]) was 7.90, the pKi (opioid receptor kappa; [5]) was 8.57 and the pKi (opioid receptor mu; [6]) was 8.39.

`CC(C)CCNCc1ccc(-c2ccc(-c3ncn[nH]3)cc2)cc1` [7B-01] gave a pKi (opioid receptor delta; [4]) of 6.51, a pKi (opioid receptor kappa; [5]) of 7.46 and a pKi (opioid receptor mu; [6]) of 7.99.

Work on `Cc1cc(CNCCC(C)C)ccc1-c1ccc(-c2ncn[nH]2)cc1` [7B-02] yielded a pKi (opioid receptor delta; [4]) of 8.43, a pKi (opioid receptor kappa; [5]) of 8.36 and a pKi (opioid receptor mu; [6]) of 9.14.

For `Cc1cc(-c2ncn[nH]2)ccc1-c1ccc(CNCCC(C)C)cc1F` [7B-03], the pKi (opioid receptor delta; [4]) was 7.55, the pKi (opioid receptor kappa; [5]) was 8.03 and the pKi (opioid receptor mu; [6]) was 8.77.

With `CC(C)CCNCc1ccc(-c2ccc(-c3ncn[nH]3)cc2)c(F)c1` [7B-04] the pKi (opioid receptor delta; [4]) was 8.09, the pKi (opioid receptor kappa; [5]) was 7.87 and the pKi (opioid receptor mu; [6]) was 8.60.

`CC(C)CCNCc1ccc(-c2ccc(-c3ncn[nH]3)cc2C(F)(F)F)cc1` [7B-05] gave a pKi (opioid receptor delta; [4]) of 7.53, a pKi (opioid receptor kappa; [5]) of 7.32 and a pKi (opioid receptor mu; [6]) of 7.85.

With `Cc1cc(CNCCC(C)C)ccc1-c1cccc(NS(C)(=O)=O)c1` [8A-02] the pKi (opioid receptor delta; [7]) was 7.98, the pKi (opioid receptor kappa; [8]) was 7.82 and the pKi (opioid receptor mu; [9]) was 8.94.

With `CC(C)CCNCc1ccc(-c2cccc(NS(C)(=O)=O)c2)c(C#N)c1` [8A-03] the pKi (opioid receptor delta; [7]) was 7.74, the pKi (opioid receptor kappa; [8]) was 7.86 and the pKi (opioid receptor mu; [9]) was 8.94.

Work on `CS(=O)(=O)Nc1ccc(-c2ccc(CNC3Cc4ccccc4C3)c(F)c2)cc1` [8B-02] yielded a pKi (opioid receptor delta; [4]) of 7.40, a pKi (opioid receptor kappa; [5]) of 6.24 and a pKi (opioid receptor mu; [6]) of 8.03.

`Cc1cc(C(N)=O)ccc1-c1ccc(CNCCC(C)C)cc1` [E4-02, (4′-carbamoyl-2′-methyl-biphenyl-4-ylmethyl)-(3-methyl-butyl)-ammonium chloride] showed a pKi (opioid receptor delta; read-out: Delta functional (GTPγ[35S] binding Ki)) of 8.10, a pKi (opioid receptor kappa; read-out: Kappa functional (GTPγ[35S] binding Ki)) of 8.67 and a pKi (opioid receptor mu; read-out: Mu functional (GTPγ[35S] binding Ki)) of 8.21.

`Cc1cc(-c2nnc[nH]2)ccc1-c1ccc(C[NH2+]CCC(C)C)cc1` [E7-01, [2′-methyl-4′-(4H-[1,2,4]-triazol-3-yl)-biphenyl-4-ylmethyl]-(3-methyl-butyl)-amine hydrochloride] showed a pKi (opioid receptor delta; [4]) of 7.96, a pKi (opioid receptor kappa; [5]) of 7.89 and a pKi (opioid receptor mu; [6]) of 8.41.

Work on `Cc1cc(CNCCC(C)C)ccc1-c1ccc(NS(C)(=O)=O)cc1` [E8-01, (4′-Methenesulfonylamino-2-methyl-biphenyl-4-ylmethyl)-(3-methyl-butyl)-ammonium chloride] yielded a pKi (opioid receptor delta; [4]) of 7.49, a pKi (opioid receptor kappa; [5]) of 6.55 and a pKi (opioid receptor mu; [6]) of 7.38.
